Measured values: patent US6355799B1, “Substituted benzene compounds, process for their preparation, and herbicidal and defoliant compositions containing them” (ISK Americas Incorporated, priority 1997, dated 2002)

Key:
Assay type in all cases: in vivo
[1] = system: redroot pigweed (Amaranthus retroflexus, AMARE); experiment: Pre-emerge test, greenhouse herbicide activity screening; settings: for pest or weed control at 63 g/ha / pest or weed control at 250 g/ha: Amaranthus retroflexus, pre-emergence, 336 h, pre-emerge, phytotoxicity rating 0-100 at 14 days after application, read-out: Pre-emerge Herbicidal Activity AMARE; for pest or weed control at 63 g/ha: rate 63 g ai/ha; for pest or weed control at 250 g/ha: rate 250 g ai/ha; for Pre-emerge herbicidal activity, phytotoxicity rating AMARE: rating scale 0-100, 14 days after application
In short: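 Sandy loam pots; pre-emerge: sown 1 d pre-spray, surface-watered after, then bottom-watered. Post-emerge: sown 8–21 d before, 2–3 leaf stage, + 0.25% v/v NIS, bottom-watered. Acetone, 187 l/ha track spray, 15–1000 g ai/ha. 0–100 injury score, day 14.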

[2] = system: green foxtail (Setaria viridis, SETVI); experiment: as above; settings: for pest or weed control at 63 g/ha / pest or weed control at 250 g/ha: Setaria viridis, pre-emergence, 336 h, pre-emerge, phytotoxicity rating 0-100 at 14 days after application, read-out: Pre-emerge Herbicidal Activity SETVI; for pest or weed control at 63 g/ha: rate 63 g ai/ha; for pest or weed control at 250 g/ha: rate 250 g ai/ha; for Pre-emerge herbicidal activity, phytotoxicity rating SETVI: rating scale 0-100, 14 days after application
In short: (§1)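 Herbicidal damage is scored 0 (none) to 100 (complete plant death) two weeks after a simulated field spray. Rates span 15–1000 g ai/ha, delivered in acetone at 187 l/ha. For post-emergence treatments, plants have 2–3 leaves and the spray carries 0.25% v/v non-ionic surfactant.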

[3] = system: johnsongrass (Sorghum halepense, SORHA); experiment: as above; settings: for pest or weed control at 63 g/ha / pest or weed control at 250 g/ha: Sorghum halepense, pre-emergence, 336 h, pre-emerge, phytotoxicity rating 0-100 at 14 days after application, read-out: Pre-emerge Herbicidal Activity SORHA; for pest or weed control at 63 g/ha: rate 63 g ai/ha; for pest or weed control at 250 g/ha: rate 250 g ai/ha; for Pre-emerge herbicidal activity, phytotoxicity rating SORHA: rating scale 0-100, 14 days after application
In short: as §1

[4] = system: lambsquarters (Chenopodium album, CHEAL); experiment: as above; settings: for pest or weed control at 63 g/ha / pest or weed control at 250 g/ha: Chenopodium album, pre-emergence, 336 h, pre-emerge, phytotoxicity rating 0-100 at 14 days after application, read-out: Pre-emerge Herbicidal Activity CHEAL; for pest or weed control at 63 g/ha: rate 63 g ai/ha; for pest or weed control at 250 g/ha: rate 250 g ai/ha; for Pre-emerge herbicidal activity, phytotoxicity rating CHEAL: rating scale 0-100, 14 days after application
In short: as §1

[5] = system: velvetleaf (Abutilon theophrasti, ABUTH); experiment: as above; settings: for pest or weed control at 63 g/ha / pest or weed control at 250 g/ha: Abutilon theophrasti, pre-emergence, 336 h, pre-emerge, phytotoxicity rating 0-100 at 14 days after application, read-out: Pre-emerge Herbicidal Activity ABUTH; for pest or weed control at 63 g/ha: rate 63 g ai/ha; for pest or weed control at 250 g/ha: rate 250 g ai/ha; for Pre-emerge herbicidal activity, phytotoxicity rating ABUTH: rating scale 0-100, 14 days after application
In short: as §1

[6] = system: common ragweed (Ambrosia artemisizfolia L., AMBEL); experiment: Post-emerge test, greenhouse herbicide activity screening; settings: post-emerge, phytotoxicity rating 0-100 at 14 days after application
In short: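 Compounds in acetone were track-sprayed at 15–1000 g ai/ha: pre-emergence onto soil sown the previous day, then top-watered to incorporate and later bottom-watered; post-emergence onto 2–3 leaf plants with 0.25% v/v surfactant, bottom-watered only. Ratings on a 0–100 phytotoxicity scale were taken at day 14.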

Row | SMILES | pest or weed control at 63 g/ha [1] [%] | pest or weed control at 250 g/ha [1] [%] | pest or weed control at 63 g/ha [2] [%] | pest or weed control at 250 g/ha [2] [%] | pest or weed control at 63 g/ha [3] [%] | pest or weed control at 250 g/ha [3] [%] | pest or weed control at 63 g/ha [4] [%] | pest or weed control at 250 g/ha [4] [%] | pest or weed control at 63 g/ha [5] [%] | pest or weed control at 250 g/ha [5] [%] | also measured
1 | Cc1nn(-c2c(N)cc(Cl)cc2F)c(=O)n1C(F)F [Compound 6-22] | 30 | 100 | 10 | 50 | 0 | 10 | 40 | 100 | 20 | 100 | –
2 | Cc1nn(-c2c(F)cc(Cl)cc2NC(=O)c2ccc3ccccc3c2)c(=O)n1C(F)F [Compound 6-24] | 20 | 100 | 0 | 40 | – | – | 30 | 90 | 0 | 70 | –
3 | COc1c(Cl)cc(F)c(-c2nn(C)c(C(F)(F)F)c2Cl)c1NC(=O)c1ccc2ccccc2c1 [Compound 7-14] | 40 | 80 | 0 | 70 | – | – | 70 | 100 | 40 | 60 | –
4 | COc1c(Cl)cc(F)c(-c2nn(C)c(C(F)(F)F)c2Cl)c1NC(=O)C=Cc1ccccc1 [Compound 7-15] | 80 | 100 | 0 | 60 | 0 | 20 | 100 | 100 | 40 | 90 | –
5 | Nc1c(O)c(Cl)cc(F)c1N1C(=O)C2=C(CCCC2)C1=O [Compound 8-2, 2-amino-6-chloro-4-fluoro-3-tetrahydrophthalimido)phenol] | 90 | 100 | 20 | 100 | 0 | 20 | 80 | 100 | 80 | 100 | Post-emerge Herbicidal Activity AMBEL ([6]; 63 g ai/ha): 30; Post-emerge Herbicidal Activity AMBEL ([6]; 250 g ai/ha): 90
6 | CC(C)Oc1c(Cl)cc(F)c(N2C(=O)C3=C(CCCC3)C2=O)c1N [Compound 8-4, N-(2-amino-4-chloro-6-fluoro-3-isopropyloxyphenyl)tetrahydrophthalimide] | 60 | 100 | 30 | 70 | 0 | 20 | 80 | 99 | 0 | 90 | –
7 | COc1c(Cl)cc(F)c(N2C(=O)c3ccccc3C2=O)c1NC(=O)c1ccc2ccccc2c1 [Compound 13-3, N-[4-chloro-6-fluoro-3-methoxy-2-(2-naphthoyl)aminophenyl]phthalimide] | – | – | – | – | – | – | – | – | – | – | Pre-emerge herbicidal activity, phytotoxicity rating AMARE ([1]; 63 g ai/ha): 100; Pre-emerge herbicidal activity, phytotoxicity rating AMARE ([1]; 250 g ai/ha): 100; Pre-emerge herbicidal activity, phytotoxicity rating SETVI ([2]; 63 g ai/ha): 10; Pre-emerge herbicidal activity, phytotoxicity rating SETVI ([2]; 250 g ai/ha): 40; Pre-emerge herbicidal activity, phytotoxicity rating SORHA ([3]; 63 g ai/ha): 0; Pre-emerge herbicidal activity, phytotoxicity rating SORHA ([3]; 250 g ai/ha): 10; Pre-emerge herbicidal activity, phytotoxicity rating CHEAL ([4]; 63 g ai/ha): 90; Pre-emerge herbicidal activity, phytotoxicity rating CHEAL ([4]; 250 g ai/ha): 100; Pre-emerge herbicidal activity, phytotoxicity rating ABUTH ([5]; 63 g ai/ha): 0; Pre-emerge herbicidal activity, phytotoxicity rating ABUTH ([5]; 250 g ai/ha): 20
